molecular target: T1, BaF3-FLT3-ITD-D835V (Homo sapiens, UniProt P36888, INS600HVDFREYEYD/D835V, cells depend on it); assay: CTB viability assay CS0048, BaF3-FLT3-ITD-D835V; format: cell-based, murine; conditions: BaF3-FLT3-ITD-D835V cells, CellTiter Blue viability, 72 hours; read-out: Cell Assay: CS0048: BaF3-FLT3-ITD-D835V CTB:IC50
T1 sequence (P36888 with tags, fused parts or gaps INS600HVDFREYEYD/D835V): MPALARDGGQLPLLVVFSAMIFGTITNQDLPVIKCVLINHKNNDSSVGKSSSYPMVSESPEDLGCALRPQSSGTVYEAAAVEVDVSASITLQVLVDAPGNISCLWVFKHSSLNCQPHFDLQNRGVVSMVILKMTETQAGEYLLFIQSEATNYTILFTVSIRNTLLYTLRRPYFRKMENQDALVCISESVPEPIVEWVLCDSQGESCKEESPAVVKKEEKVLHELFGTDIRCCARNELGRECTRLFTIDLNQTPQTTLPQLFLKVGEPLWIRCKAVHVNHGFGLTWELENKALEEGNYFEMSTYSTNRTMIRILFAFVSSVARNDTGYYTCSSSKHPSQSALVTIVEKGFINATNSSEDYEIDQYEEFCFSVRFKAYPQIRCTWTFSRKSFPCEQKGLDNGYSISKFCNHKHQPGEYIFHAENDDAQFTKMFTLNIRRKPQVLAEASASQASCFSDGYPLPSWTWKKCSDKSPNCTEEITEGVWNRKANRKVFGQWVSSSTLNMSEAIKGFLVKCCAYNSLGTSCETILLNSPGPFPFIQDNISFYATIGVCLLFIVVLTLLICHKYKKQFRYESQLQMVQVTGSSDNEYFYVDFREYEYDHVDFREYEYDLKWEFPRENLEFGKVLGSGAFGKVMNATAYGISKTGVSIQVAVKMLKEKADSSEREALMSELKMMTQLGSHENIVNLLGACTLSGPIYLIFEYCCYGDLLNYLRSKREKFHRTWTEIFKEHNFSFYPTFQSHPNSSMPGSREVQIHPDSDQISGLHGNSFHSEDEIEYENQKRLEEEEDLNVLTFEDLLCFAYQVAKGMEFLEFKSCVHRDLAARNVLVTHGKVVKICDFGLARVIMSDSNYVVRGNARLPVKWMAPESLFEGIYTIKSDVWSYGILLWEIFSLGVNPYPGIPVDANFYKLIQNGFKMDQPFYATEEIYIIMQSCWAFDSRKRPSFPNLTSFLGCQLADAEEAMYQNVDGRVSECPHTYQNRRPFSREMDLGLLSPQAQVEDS
Excerpt: Gene constructs containing the human FLT3 sequences FLT3-ITD, FLT3-ITD-F691L, FLT3-ITD-D835V and FLT3-D835V were synthesized by reverse translation of the human protein sequences, with codons optimized for mammalian expression. Sequence of the internal tandem duplication (ITD) was based on the MV4-11 ITD sequence. Synthetic DNA constructs were cloned into the pMSCV puro retroviral vector (Clontech) and transfected into the EcoPack2-293 packaging cell line (Clontech) to generate retroviruses that contain the different FLT3 constructs. Viruses were transduced into the IL-3-dependent, murine […] cell line, Ba/F3, and selected for puromycin resistance and IL-3 independence. All cell lines were cloned by limiting dilution and clones were used for all subsequent cell assays. Overexpression of the FLT3 mutants in the Ba/F3 cells results in constitutive phosphorylation of the exogenous FLT3 protein, which is required for IL-3 independence.
Cell lines were serum starved overnight in media containing 0.5% FBS, plated at 15,000 cells/well in 96-well white-walled tissue culture plates, and 3-fold serial dilutions of test compounds of Formula I were added for 72 hours at 37° C. CellTiter Blue (CTB, Promega) was added and incubated for an additional 3 hours at 37° C. Fluorescence was read at 560 nm excitation, 590 nm emission. Wells with CTB+media only were used for background subtraction, and the fluorescence of compound-treated cells was normalized to the fluorescence of DMSO-treated cells. IC50s were determined using Igor Pro software. All compounds are assayed in duplicate cell plates.

| SMILES | GI50 [µM] |
| --- | --- |
| O=C(Cc1ccc(-c2ccc(Nc3ccccc3)nc2)cc1F)Nc1cc(C2(C(F)(F)F)CC2)on1 [P-003, 2-[4-(6-anilino-3-pyridyl)-2-fluoro-phenyl]-N-[5-[1-(trifluoromethyl)cyclopropyl]isoxazol-3-yl]acetamide] | 0.01 to 0.05 |
| O=C(Cc1ccc(-c2cnc(Nc3ccccc3)cn2)cc1F)Nc1cc(C2(C(F)(F)F)CC2)on1 [P-005, 2-[4-(5-anilinopyrazin-2-yl)-2-fluorophenyl]-N-[5-[1-(trifluoromethyl)cyclopropyl]isoxazol-3-yl]acetamide] | 0.01 to 0.05 |
| CCn1cnc(Nc2ncc(-c3ccc(CC(=O)Nc4cc(C5(C(F)(F)F)CC5)on4)c(F)c3)cn2)c1 [P-068, 2-[4-[2-[(1-ethylimidazol-4-yl)amino]pyrimidin-5-yl]-2-fluorophenyl]-N-[5-[1-(trifluoromethyl)cyclopropyl]isoxazol-3-yl]acetamide] | 0.01 to 0.05 |
| Cn1cc(Nc2ncc(-c3ccc(CC(=O)Nc4cc(C5(C(F)(F)F)CC5)on4)c(F)c3)cn2)c(C(F)(F)F)n1 [P-077, 2-[2-fluoro-4-[2-[[1-methyl-3-(trifluoromethyl)pyrazol-4-yl]amino]pyrimidin-5-yl]phenyl]-N-[5-[1-(trifluoromethyl)cyclopropyl]isoxazol-3-yl]acetamide] | 0.01 to 0.05 |
| Cn1nccc1Nc1ncc(-c2ccc(CC(=O)Nc3cc(C4(C(F)(F)F)CC4)on3)c(F)c2)cn1 [P-091, 2-[2-fluoro-4-[2-[(2-methylpyrazol-3-yl)amino]pyrimidin-5-yl]phenyl]-N-[5-[1-(trifluoromethyl)cyclopropyl]isoxazol-3-yl]acetamide] | 0.01 to 0.05 |
| CCn1nccc1Nc1ncc(-c2ccc(CC(=O)Nc3cc(C4(C(F)(F)F)CC4)on3)c(F)c2)cn1 [P-103, 2-[4-[2-[(2-ethylpyrazol-3-yl)amino]pyrimidin-5-yl]-2-fluorophenyl]-N-[5-[1-(trifluoromethyl)cyclopropyl]isoxazol-3-yl]acetamide] | 0.01 to 0.05 |
| Cn1cnc(Nc2ncc(-c3ccc(CC(=O)Nc4cc(C5(C)CC5)no4)c(F)c3)cn2)c1 [P-112, 2-[2-fluoro-4-[2-[(1-methylimidazol-4-yl)amino]pyrimidin-5-yl]phenyl]-N-[3-(1-methylcyclopropyl)isoxazol-5-yl]acetamide] | 0.01 to 0.05 |
| Cc1cc(C(=O)N(C)C)ccc1Nc1ncc(-c2ccc(CC(=O)Nc3cc(C4(C(F)(F)F)CC4)on3)c(F)c2)cn1 [P-113, 4-[[5-[3-fluoro-4-[2-oxo-2-[[5-[1-(trifluoromethyl)cyclopropyl]isoxazol-3-yl]amino]ethyl]phenyl]pyrimidin-2-yl]amino]-N,N,3-trimethyl-benzamide] | 0.01 to 0.05 |
| CC(O)c1nn(C)cc1Nc1ncc(-c2ccc(CC(=O)Nc3cc(C4(C(F)(F)F)CC4)on3)c(F)c2)cn1 (stereo not drawn) [P-114, 2-[2-fluoro-4-[2-[[3-(1-hydroxyethyl)-1-methylpyrazol-4-yl]amino]pyrimidin-5-yl]phenyl]-N-[5-[1-(trifluoromethyl)cyclopropyl]isoxazol-3-yl]acetamide] | 0.01 to 0.05 |
| Cc1nn(C)cc1Nc1ncc(-c2ccc(CC(=O)Nc3cc(C4(C(F)(F)F)CC4)on3)c(F)c2)c(C)n1 [P-116, 2-[4-[2-[(1,3-dimethylpyrazol-4-yl)amino]-4-methyl-pyrimidin-5-yl]-2-fluorophenyl]-N-[5-[1-(trifluoromethyl)cyclopropyl]isoxazol-3-yl] acetamide] | 0.01 to 0.05 |
| COc1nn(C)cc1Nc1ncc(-c2ccc(CC(=O)Nc3cc(C4(C(F)(F)F)CC4)on3)c(F)c2)c(OC)n1 [P-123, 2-[2-fluoro-4-[4-methoxy-2-[(3-methoxy-1-methyl-pyrazol-4-yl)amino]pyrimidin-5-yl]phenyl]-N-[5-[1-(trifluoromethyl)cyclopropyl]isoxazol-3-yl]acetamide] | 0.01 to 0.05 |
| COc1nn(C)cc1Nc1ncc(-c2ccc(CC(=O)Nc3cc(C4(C(F)(F)F)CC4)on3)c(F)c2)c(C)n1 [P-124, 2-[2-fluoro-4-[2-[(3-methoxy-1-methylpyrazol-4-yl)amino]-4-methyl-pyrimidin-5-yl]phenyl]-N-[5-[1-(trifluoromethyl)cyclopropyl]isoxazol-3-yl] acetamide] | 0.01 to 0.05 |
| COc1nn(C2CC2)cc1Nc1ncc(-c2ccc(CC(=O)Nc3cc(C4(C(F)(F)F)CC4)on3)c(F)c2)c(OC)n1 [P-136, 2-[4-[2-[(1-cyclopropyl-3-methoxypyrazol-4-yl)amino]-4-methoxy-pyrimidin-5-yl]-2-fluorophenyl]-N-[5-[1-(trifluoromethyl)cyclopropyl]isoxazol-3-yl]acetamide] | 0.01 to 0.05 |
| COCCOc1nn(C)cc1Nc1ncc(-c2ccc(CC(=O)Nc3cc(C4(C(F)(F)F)CC4)on3)c(F)c2)cn1 [P-148, 2-[2-fluoro-4-[2-[[3-(2-methoxyethoxy)-1-methylpyrazol-4-yl]amino]pyrimidin-5-yl]phenyl]-N-[5-[1-(trifluoromethyl)cyclopropyl]isoxazol-3-yl]acetamide] | 0.01 to 0.05 |
| Cc1nn(C)cc1Nc1ncc(-c2ccc(CC(=O)Nc3cc(C4(C(F)(F)F)CC4)on3)c(F)c2)c(Cl)n1 [P-157, 2-[4-[4-chloro-2-[(1,3-dimethylpyrazol-4-yl)amino]pyrimidin-5-yl]-2-fluoro-phenyl]-N-[5-[1-(trifluoromethyl)cyclopropyl]isoxazol-3-yl]acetamide] | 0.01 to 0.05 |
| COc1cc(Nc2ncc(-c3ccc(CC(=O)Nc4cc(C5(C(F)(F)F)CC5)on4)c(F)c3)cn2)n(C)n1 [P-164, 2-[2-fluoro-4-[2-[(5-methoxy-2-methyl-pyrazol-3-yl)amino]pyrimidin-5-yl]phenyl]-N-[5-[1-(trifluoromethyl)cyclopropyl]isoxazol-3-yl]acetamide] | 0.01 to 0.05 |
| Cn1cnc(Nc2ncc(-c3ccc(CC(=O)Nc4cc(C5(C(F)F)CC5)on4)c(F)c3)cn2)c1 [P-184, N-[5-[1-(difluoromethyl)cyclopropyl]isoxazol-3-yl]-2-[2-fluoro-4-[2-[(1-methylimidazol-4-yl)amino]pyrimidin-5-yl]phenyl] acetamide] | 0.01 to 0.05 |
| CCc1n[nH]cc1Nc1ncc(-c2ccc(CC(=O)Nc3cc(C4(C(F)(F)F)CC4)on3)c(F)c2)cn1 [P-214, 2-(4-(2-((3-ethyl-1H-pyrazol-4-yl)amino)pyrimidin-5-yl)-2-fluorophenyl)-N-(5-(1-(trifluoromethyl)cyclopropyl)isoxazol-3-yl)acetamide] | 0.01 to 0.05 |
